Data reported in US11203582B2, “Benzamide derivatives for inhibiting endoplasmic reticulum (ER) stress” (The Board of Regents of the University of Oklahoma, priority 2017, dated 2021).

Key:
Assay type in all cases: cell-based, rat
MafA mRNA = experiment: qRT-PCR of MafA mRNA in Tm-treated INS-1 cells; conditions: Tm co-treatment, 24 h
Description: (§1) (A-D) INS-1 cells were treated with or without Tm (0.1 m/mL) in the presence of 13d at indicated concentrations or DMSO for 24 h. The mRNA levels of INS1 (A), INS2 (B), PDX1 (C), and MafA (D), were analyzed by qRT-PCR. Relative mRNA levels were normalized against the housekeeping gene Cyclophilin A using the comparative CT method. The results are the means of 3 replicate wells and are representative of 3 independent experiments. * P<0.05 and ** P<0.01 compared with Tm treatment alone. Bars indicate SD. (E) Insulin secretion by INS-1 cells incubated with 1.7 mM and 20 mM glucose in the presence or absence of Tm (0.1 μg/mL) and 13d. Secreted insulin was measured by ELISA after 24 h treatment. * P<0.05. The amount of insulin secreted in response to 1.7 mM glucose in the absence of Tm was set to 1.0 and was normalized with total protein concentration.
(§2) INS-1 cells were seeded at 4×10^5 cells/well in 6-well plates and treated with compounds for the indicated times. […] Relative mRNA levels were normalized against the housekeeping gene Cyclophilin A and were determined by ΔΔCt calculated from the difference in ΔCt values between the target gene and Cyclophilin A with and without treatment, based on comparative CT (cycle threshold) method. […]

GRP94 mRNA = experiment: qRT-PCR of GRP94 mRNA in Tm-treated INS-1 cells; conditions: Tm 0.1 μg/mL co-treatment, 8 h
Description: INS-1 cells were treated with or without Tm (0.1 μg/mL) in the presence of 13d or DMSO for 8 h. Bip (A) and GRP94 (B) mRNA levels were analyzed by qRT-PCR. Relative mRNA levels were normalized against the housekeeping gene Cyclophilin A using the comparative CT method. The results are the means of 3 replicate wells and representative of 3 independent experiments. ** P<0.01 compared with Tm treatment alone. Error bars indicate SD.
We then investigated the effects of 13d on the activation of ATF6 in β-cells under ER stress. Activated ATF6 acts as a homodimer or as an ATF6-XBP1s heterodimer to control the up-regulation of select UPR target genes including the chaperone proteins BiP and GRP94. Therefore, these two chaperone proteins were evaluated in the INS-1 cells in the presence of Tm.
as §2, with “times. Total RNA was extracted using TRIzol reagent (Invitrogen, Carlsbad, Calif.) according to the manufacturer's protocol, and 2 μg of total RNA was reverse transcribed using a Superscript kit (Invitrogen).” for “times.”

cleaved PARP = experiment: Western blotting of cleaved PARP in Tm-treated INS-1 cells; conditions: Tm co-treatment, 24 h
Description: To determine whether the increase in β-cell viability following treatment with 13d is caused by a suppression of apoptotic cell death, several apoptosis-related makers were measured. First, levels of cleaved caspase-3 and cleaved PARP were assayed by Western blotting. Caspase-3, a member of executioner caspases activated by cleavage, plays essential roles in initiating apoptotic signaling and executing the final stages of cell death, whereas the nuclear enzyme poly (ADP-ribose) polymerase (PARP) plays an important role in a number of cellular processes involving DNA repair and cell death. […] However, upon severe ER stress, caspase 3 undergoes proteolytic cleavage to produce two subunits that dimerize to form the active enzyme, which in turns cleaves PARP. […] A further assessment of apoptotic INS-1 cell death was performed using TUNEL assays to detect nuclear DNA fragmentation (a consequence of cell apoptosis) in situ.
INS-1 cells were seeded in 60-mm dishes at 8×10^5 cells/dish and treated for the indicated times. Cells were then washed with PBS and lysed with lysis buffer (Cell Signaling Technology, Danvers, Mass.) containing EDTA (Thermo, Ill.) and phosphatase inhibitors (Thermo). Aliquots of 20 μg total protein were separated on 7% SDS-PAGE gels (Life Technologies) and transferred to PVDF membranes (Life Technologies). […]

INS-1 cells = experiment: Glucose-stimulated insulin secretion (ELISA) in Tm-treated INS-1 cells; conditions: Tm 0.1 μg/mL, 24 h, 20 mM glucose
Description: as §1
INS-1 or primary human islet cells were plated in 96-well plates. The second day, Tm and test compound were added and maintained for 24 h (INS-1) or 48 h (human islets). […] The secreted insulin was measured with insulin ELISA kits (for mouse insulin from Millipore and for human insulin from LifeTech). Cells were lysed with RIPA buffer (50 mM Tris HCl pH 7.4, 1% NP-40, 0.25% sodium deoxycholate, 150 mM NaCl), and total cellular protein was determined with a Bradford protein assay. […]

O=C(NCc1ccc(C(F)(F)F)cc1)c1cccc(CN2CCCCC2)c1 [Compound 13d, N-(4-trifluoromethylphenmethyl)-3-(N-piperidinyl)methyl benzamide]
Tm-decreased MafA mRNA expression level (MafA mRNA): completely rescued
Tm-induced up-regulation of GRP94 mRNA (GRP94 mRNA): almost completely reversed
Tm-induced cleavage of PARP (cleaved PARP): completely or significantly diminished
glucose-stimulated insulin secretion (GSIS) in Tm-treated cells (INS-1 cells): significantly rescued
